As a reminder, the EC50 is the concentration giving half of the maximal effect. Low readings indicate an effect from little substance, high ones a need for much substance.

These results are taken from patent US8933075B2, “Compounds useful as antiviral agents, compositions, and methods of use” (priority 2010, dated 2015).

This test relates to A/Udorn/72 (H3N2) virus. Briefly: Plaque assay in MDCK cells: EC50 by reduction of plaque number. The format is cell-based, influenza virus.

Where two headings read alike, the source gives them in different places.

Regarding `O=C1/C(=C/c2sc(-c3cccc(Cl)c3)cc2C#CCCCO)SC(=S)N1C1C2CC3CC(C2)CC1C3` (stereo not shown) [Compound 285], the half-maximal effective concentration (EC50) (MDCK) is less than 100 nM. Regarding `Cn1c(-c2ccc(Cl)cc2)cc(CCCCCO)c1/C=C1\SC(=S)N(C2C3CC4CC(C3)CC2C4)C1=O` (stereo not shown) [Compound 261], the EC50 (MDCK) was less than 100 nM. The same measure, in the same setting: the figure for `O=C1/C(=C/c2cc(CCCCCO)c(-c3ccc(Cl)cc3)s2)SC(=S)N1C1C2CC3CC(C2)CC1C3` (stereo not shown) [Compound 283] is less than 100 nM; for `COc1ccc(-c2ccc(/C=C3\SC(=S)N(C4CC5CCC4C5)C3=O)o2)cc1` (stereo not shown) [Compound 8] it is less than 100 nM; for `O=C1/C(=C/c2oc(-c3ccc(F)cc3)cc2CCCCCO)SC(=S)N1C1CC2CCC1C2` (stereo not shown) [Compound 105] it is less than 100 nM.

In turn, `COc1cccc(-c2cc(CCCCCO)c(/C=C3\SC(=S)N(C4C5CC6CC(C5)CC4C6)C3=O)s2)c1` (stereo not shown) [Compound 279] registered a concentration for a half-maximal effect (EC50) (MDCK) of less than 100 nM.

`NCCCc1cc(-c2ccc(F)cc2)oc1/C=C1\SC(=S)N(C2CC3CCC2C3)C1=O` (stereo not shown) [Compound 127] showed a half-maximal effective concentration (EC50) (MDCK) of less than 100 nM. With `COCOc1cc(-c2ccc(/C=C3\SC(=S)N(C4CC5CCC4C5)C3=O)o2)cc(OC)c1OCOC` (stereo not shown) [Compound 26], for the setting “MDCK”, the half-maximal effective concentration (EC50) is less than 100 nM. Still for that read-out and setting: the figure for `COc1ccc2c(O)c(-c3ccc(/C=C4\SC(=S)N(C5CC6CCC5C6)C4=O)o3)c(=O)oc2c1OC` (stereo not shown) [Compound 71] is 100 to 250 nM; for `CC(C)(C)OC(=O)N[C@@H](CC(N)=O)C(=O)OCCCc1cc(-c2ccc(Cl)cc2)[nH]c1/C=C1\SC(=S)N(C2C3CC4CC(C3)CC2C4)C1=O` (stereo partly shown) [Compound 253] it is less than 100 nM; for `COC(=O)c1cc(-c2ccc(/C=C3\SC(=S)N(C4CC5CCC4C5)C3=O)o2)ccc1OC` (stereo not shown) [Compound 14] it is less than 100 nM. The same measure, in the same setting: for `COc1cc(OC)cc(-c2ccc(/C=C3\SC(=S)N(C4C5CC6CC(C5)CC4C6)C3=O)[nH]2)c1` (stereo not shown) [Compound 59] the value was less than 100 nM.

Where the note is “MDCK”, `CCCCCc1ccc2oc(=O)c(-c3ccc(/C=C4\SC(=S)N(C5CC6CCC5C6)C4=O)o3)c(O)c2c1` (stereo not shown) [Compound 320] showed a half-maximal effective concentration (EC50) of less than 100 nM. `O=C1/C(=C/c2cc(CCCO)c(-c3ccc(Cl)cc3)n2Cc2ccccc2)SC(=S)N1C1C2CC3CC(C2)CC1C3` (stereo not shown) [Compound 257]: for the setting “MDCK”, the EC50 was less than 100 nM. In turn, `CC(C)(C)OC(=O)N[C@@H](CC(N)=O)C(=O)N1CCN(CCCCCc2cc(-c3ccc(Cl)cc3)oc2/C=C2\SC(=S)N(C3C4CC5CC(C4)CC3C5)C2=O)CC1` (stereo partly shown) [Compound 373] displayed an EC50 (MDCK) of less than 100 nM.

`CCOc1ccc(F)c(F)c1-c1ccc(/C=C2\SC(=S)N(C3CCCC3)C2=O)o1` [Compound 50] displayed an EC50 (MDCK) of less than 100 nM. The same measure, in the same setting: the figure for `Cn1c(-c2ccc(Cl)cc2)cc(CCCO)c1/C=C1\SC(=S)N(C2C3CC4CC(C3)CC2C4)C1=O` (stereo not shown) [Compound 259] is greater than 1000 nM; for `COc1cc(OC)cc(-c2cc(CCCNC(=O)[C@@H](N)CC(=O)O)c(/C=C3\SC(=S)N(C4CC5CCC4C5)C3=O)o2)c1` (stereo partly shown) [Compound 169] it is less than 100 nM. Still for that read-out and setting: the figure for `COc1cccc(-c2cc(CCCCCOC(=O)[C@H](CC(N)=O)NC(=O)OC(C)(C)C)c(/C=C3\SC(=S)N(C4C5CC6CC(C5)CC4C6)C3=O)s2)c1` (stereo partly shown) [Compound 310] is less than 100 nM; for `O=C1/C(=C/c2ccc(Br)s2)SC(=S)N1C1C2CC3CC(C2)CC1C3` (stereo not shown) [Compound 212] it is less than 100 nM.

Consider `COc1cc(OC)cc(-c2cc(CCCCCCO)c(/C=C3\SC(=S)N(C4C5CC6CC(C5)CC4C6)C3=O)o2)c1` (stereo not shown) [Compound 112], for which, under “MDCK”, the EC50 was less than 100 nM. Under “MDCK”, `COc1cc(OC)cc(-c2cc(CCCNC(=O)[C@H](CC(=O)OC(C)(C)C)NC(=O)OC(C)(C)C)c(/C=C3\SC(=S)N(C4CC5CCC4C5)C3=O)o2)c1` (stereo partly shown) [Compound 158] displayed an EC50 of less than 100 nM. Consider `O=C1/C(=C/c2ccc(-c3ccc(-c4ccccc4)cc3)o2)SC(=S)N1C1CC2CCC1C2` (stereo not shown) [Compound 226], for which, where the note is “MDCK”, the EC50 is less than 100 nM.

Compound `COc1cccc(-c2cc(CCCO)c(/C=C3\SC(=S)N(C4C5CC6CC(C5)CC4C6)C3=O)[nH]2)c1` (stereo not shown) [Compound 238] showed a 50% effective concentration (EC50) of 250 to 1000 nM. In turn, `O=C1/C(=C/c2sc(-c3ccc(Cl)cc3)cc2CCCCCO)SC(=S)N1C1CC2CCC1C2` (stereo not shown) [Compound 278] yielded an EC50 (MDCK) of less than 100 nM.

Turning to `COc1ccc(-c2ccc(/C=C3\SC(=S)N(C4C5CC6CC(C5)CC4C6)C3=O)o2)cc1` (stereo not shown) [Compound 9], the EC50 (MDCK) is less than 100 nM. Take `COc1cccc(-c2cc(CCCO)c(/C=C3\SC(=S)N(C4CC5CCC4C5)C3=O)n2C)c1` (stereo not shown) [Compound 264]: the EC50 (MDCK) was 250 to 1000 nM. Same read-out and setting: for `COc1ccc(-c2ccc(/C=C3\SC(=S)N(C4CC5CCC4C5)C3=O)o2)cc1C(=O)O` (stereo not shown) [Compound 36] the value was less than 100 nM; for `COc1ccc2oc(=O)c(CCC(=O)OCCCc3cc(-c4ccc(Cl)cc4)oc3/C=C3\SC(=S)N(C4CC5CCC4C5)C3=O)c(O)c2c1` (stereo not shown) [Compound 336], less than 100 nM. The same measure, in the same setting: the figure for `O=C1/C(=C/c2oc(-c3ccc(OC(F)(F)F)cc3)cc2CCCCCO)SC(=S)N1C1CC2CCC1C2` (stereo not shown) [Compound 340] is less than 100 nM; for `COc1cc(OC)cc(-c2cc(CCCCCO)c(/C=C3\SC(=S)N(C4CC5CCC4C5)C3=O)o2)c1` (stereo not shown) [Compound 109] it is less than 100 nM; for `O=C1/C(=C/c2oc(-c3ccc(Cl)cc3)cc2CCCN2CCNCC2)SC(=S)N1C1C2CC3CC(C2)CC1C3` (stereo not shown) [Compound 191] it is less than 100 nM. With `COc1cccc(-c2c(C#CCCCOC(=O)[C@H](CC(N)=O)NC(=O)OC(C)(C)C)cc(/C=C3\SC(=S)N(C4CC5CCC4C5)C3=O)n2C)c1` (stereo partly shown) [Compound 271], for the setting “MDCK”, the half-maximal effective concentration (EC50) is less than 100 nM. Still for that read-out and setting: the figure for `COc1ccc(-c2ccc(/C=C3\SC(=S)N(C4CC5CCC4C5)C3=O)o2)cc1OCC(=O)N[C@@H](Cc1cnc[nH]1)C(=O)O` (stereo partly shown) [Compound 82] is less than 100 nM; for `COc1cc(OC)cc(-c2ccc(/C=C3\SC(=S)N(C4CC5CCC4C5)C3=O)[nH]2)c1` (stereo not shown) [Compound 58] it is less than 100 nM. `COc1cc(OC)cc(-c2cc(CCCN(CC(=O)O)CC(=O)O)c(/C=C3\SC(=S)N(C4CC5CCC4C5)C3=O)o2)c1` (stereo not shown) [Compound 133] had an EC50 (MDCK) of 100 to 250 nM. Consider `O=C1/C(=C/c2sc(-c3ccc(Cl)cc3)cc2CCCCCO)SC(=S)N1C1C2CC3CC(C2)CC1C3` (stereo not shown) [Compound 281], for which the concentration for a half-maximal effect (EC50) (MDCK) is less than 100 nM. The same measure, in the same setting: for `COc1ccc2c(O)c(-c3ccc(/C=C4\SC(=S)N(C5CC6CCC5C6)C4=O)o3)c(=O)oc2c1` (stereo not shown) [Compound 73] the value was 100 to 250 nM. On the same count and under the same terms, the figure for `COc1cc(-c2ccc(/C=C3\SC(=S)N(C4C5CC6CC(C5)CC4C6)C3=O)o2)cc(OC)c1O` (stereo not shown) [Compound 7] is less than 100 nM; for `O=C1/C(=C/c2oc(-c3ccc(Cl)cc3)cc2CCCOC[C@@H](O)CO)SC(=S)N1C1CC2CCC1C2` (stereo partly drawn) [Compound 203, (Z)-3-(bicyclo[2.2.1]heptan-2-yl)-5-((3-(3-((S)-2,3-dihydroxypropoxy)propyl)-5-(4′-chlorophenyl)-furan-2-yl)methylene)-2-thioxothiazolidin-4-one] it is less than 100 nM. Still for that read-out and setting: the figure for `COc1cccc(-c2c(C#CCCCOC(=O)[C@H](CC(N)=O)NC(=O)OC(C)(C)C)cc(/C=C3\SC(=S)N(C4C5CC6CC(C5)CC4C6)C3=O)n2C)c1` (stereo partly shown) [Compound 270] is less than 100 nM; for `CC(C)(C)OC(=O)N[C@@H](CC(N)=O)C(=O)OCCCCCc1cc(-c2ccc(Cl)cc2)[nH]c1/C=C1\SC(=S)N(C2C3CC4CC(C3)CC2C4)C1=O` (stereo partly shown) [Compound 254] it is less than 100 nM; for `COc1ccc(-c2ccc(/C=C3\SC(=S)N(C4CC5CCC4C5)C3=O)o2)cc1OCC(=O)N[C@@H](CC(C)C)C(=O)O` (stereo partly shown) [Compound 78] it is less than 100 nM.
